Assay results from patent US12404279B2, “Deubiquitinase inhibitors and methods of use thereof” (Molecure S.A., priority 2021, dated 2025).
Where a name gives a salt, the structure may show the parent alone.

Biological target: full-length USP7 (Homo sapiens (Human), UniProt Q93009)
Assay: Enzymatic assay to determine IC50 of USP7 inhibitors (Ubiquitin-Rhodamine 110 cleavage)
Type: biochemical
Conditions: for IC50: 0.5 nM USP7, 0.5 μM Ubiquitin-Rhodamine 110, 45 min at 37° C.; for inhibition at 1 µM: at 1 μM of the test compound, given where IC50 not determined yet, read-out: percent value of inhibition of USP7 activity
Method: For the inhibitors disclosed herein, their potency was measured using the following method.
A 45 μl reaction volume containing full-length USP7 (0.5 nM) in 50 mM HEPES pH 7.5, 150 mM NaCl, 1 mM DTT, 1 mg/ml BSA and 0.05% Tween20 was assembled in wells of 96 well half area black flat bottom plates. Test compounds were first dissolved to 25 mM stocks in DMSO and subsequently introduced to enzyme 15 min after USP7 incubation with DTT at room temperature. The enzymatic reaction was started by adding 0.5 μM Ubiquitin-Rhodamine 110 (final concentration) and allowed to proceed for 45 min at 37° C., 250 RPM shaking before Rhodamine fluorescence (485 nm excitation/520 nm emission) was measured using Tecan Spark M10 plate reader.

Sequence of full-length USP7 (Q93009 whole entry): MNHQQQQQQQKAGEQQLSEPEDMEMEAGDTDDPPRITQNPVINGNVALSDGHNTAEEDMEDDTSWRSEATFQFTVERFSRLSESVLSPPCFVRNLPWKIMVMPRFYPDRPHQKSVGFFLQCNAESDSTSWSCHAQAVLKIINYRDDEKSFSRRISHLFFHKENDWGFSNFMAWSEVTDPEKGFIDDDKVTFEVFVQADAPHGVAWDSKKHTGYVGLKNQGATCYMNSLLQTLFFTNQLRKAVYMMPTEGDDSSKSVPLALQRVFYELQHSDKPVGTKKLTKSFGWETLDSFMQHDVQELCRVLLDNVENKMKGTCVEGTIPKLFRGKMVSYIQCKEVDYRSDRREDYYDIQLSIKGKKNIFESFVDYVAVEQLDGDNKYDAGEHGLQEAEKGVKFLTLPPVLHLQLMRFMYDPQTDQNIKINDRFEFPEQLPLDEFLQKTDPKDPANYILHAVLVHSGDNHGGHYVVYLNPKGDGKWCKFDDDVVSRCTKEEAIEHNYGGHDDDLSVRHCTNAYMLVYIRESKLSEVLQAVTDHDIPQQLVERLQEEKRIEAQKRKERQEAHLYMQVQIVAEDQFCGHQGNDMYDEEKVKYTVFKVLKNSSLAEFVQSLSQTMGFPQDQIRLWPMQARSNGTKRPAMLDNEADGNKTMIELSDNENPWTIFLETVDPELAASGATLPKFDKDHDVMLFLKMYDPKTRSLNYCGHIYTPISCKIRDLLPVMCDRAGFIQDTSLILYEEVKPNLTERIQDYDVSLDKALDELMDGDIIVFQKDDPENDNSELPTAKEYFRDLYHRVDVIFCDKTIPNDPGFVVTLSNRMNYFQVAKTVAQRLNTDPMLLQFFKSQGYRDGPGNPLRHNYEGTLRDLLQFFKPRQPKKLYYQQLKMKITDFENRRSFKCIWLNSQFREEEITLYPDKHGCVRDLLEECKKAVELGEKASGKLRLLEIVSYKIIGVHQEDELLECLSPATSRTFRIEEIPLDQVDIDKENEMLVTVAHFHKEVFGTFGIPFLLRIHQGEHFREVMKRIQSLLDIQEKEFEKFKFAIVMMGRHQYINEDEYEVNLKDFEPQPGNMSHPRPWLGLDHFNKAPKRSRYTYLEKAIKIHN

In the case of `CNCC(=O)Nc1c(-c2ccnc3cc(CN4C(=O)C5C(C4=O)C5(C)C)sc23)cc(C(F)(F)F)nc1C` (stereo not shown) [Example 60, N-(4-(2-((6,6-dimethyl-2,4-dioxo-3-azabicyclo[3.1.0]hexan-3-yl)methyl)thieno[3,2-b]pyridin-7-yl)-2-methyl-6-(trifluoromethyl)pyridin-3-yl)-2-(methylamino)acetamide 2,2,2-trifluoroacetate], the IC50 is reported as > 10 µM.

For “6,6-dimethyl-3-((7-(2-methyl-3-(pyrrolidin-3-ylamino)-6-(trifluoromethyl)pyridin-4-yl)thieno[3,2-b]pyridin-2-yl)methyl)-3-azabicyclo[3.1.0]hexane-2,4-dione 2,2,2-trifluoroacetate [Example 25]”, the IC50 was < 0.5 µM.

`Cc1nc(C#N)cc(-c2ccnc3cc(CN4C(=O)C5C(C4=O)C5(C)C)sc23)c1NC(=O)C1CNC1` (stereo not shown) [Example 30, N-(6-cyano-4-(2-((6,6-dimethyl-2,4-dioxo-3-azabicyclo[3.1.0]hexan-3-yl)methyl)thieno[3,2-b]pyridin-7-yl)-2-methylpyridin-3-yl)azetidine-3-carboxamide 2,2,2-trifluoroacetate] was tested, and the IC50 was < 0.5 µM.

For `Cc1cc(C#N)nc(-c2ccnc3cc(CN4C(=O)C5C(C4=O)C5(C)C)sc23)c1C(=O)NC1CNC1` (stereo not shown) [Example 56, N-(azetidin-3-yl)-6-cyano-2-(2-((6,6-dimethyl-2,4-dioxo-3-azabicyclo[3.1.0]hexan-3-yl)methyl)thieno[3,2-b]pyridin-7-yl)-4-methylnicotinamide hydrochloride], the IC50 was 1 to 10 µM.

With `CCOC(=O)c1c(C(F)(F)F)c(C)n(C[C@@H]2CNCCO2)c1-c1ccnc2cc(CN3C(=O)C4C(C3=O)C4(C)C)sc12` (stereo partly drawn) [Example 155, ethyl 2-(2-((6,6-dimethyl-2,4-dioxo-3-azabicyclo[3.1.0]hexan-3-yl)methyl)thieno[3,2-b]pyridin-7-yl)-5-methyl-1-(((S)-morpholin-2-yl)methyl)-4-(trifluoromethyl)-1H-pyrrole-3-carboxylate hydrochloride] the inhibition at 1 µM was < 20%.

`Cc1cc(Cl)nc(-c2ccnc3cc(CN4C(=O)C5C(C4=O)C5(C)C)sc23)c1NC1CCNCC1` (stereo not shown) [Example 127, 3-((7-(6-chloro-4-methyl-3-(piperidin-4-ylamino)pyridin-2-yl)thieno[3,2-b]pyridin-2-yl)methyl)-6,6-dimethyl-3-azabicyclo[3.1.0]hexane-2,4-dione tetrahydrochloride] was tested, and the IC50 was < 0.5 µM.

In the case of `Cc1cc(C(F)(F)F)nc(-c2ccnc3cc(CN4C(=O)C5C(C4=O)C5(C)C)sc23)c1C(=O)N1C[C@@H](N)[C@H](F)C1` (stereo partly drawn) [Example 117, 3-((7-(3-((3R,4R)-3-amino-4-fluoropyrrolidine-1-carbonyl)-4-methyl-6-(trifluoromethyl)pyridin-2-yl)thieno[3,2-b]pyridin-2-yl)methyl)-6,6-dimethyl-3-azabicyclo[3.1.0]hexane-2,4-dione dihydrochloride], the IC50 is reported as < 0.5 µM.

Work on `Cc1cc(C(F)(F)F)nc(-c2ccnc3cc(CN4C(=O)C5C(C4=O)C5(C)C)sc23)c1C(=O)NC1CNC1` (stereo not shown) [Example 70, N-(azetidin-3-yl)-2-(2-((6,6-dimethyl-2,4-dioxo-3-azabicyclo[3.1.0]hexan-3-yl)methyl)thieno[3,2-b]pyridin-7-yl)-4-methyl-6-(trifluoromethyl)nicotinamide dihydrochloride] yielded an IC50 of 0.5 to 1 µM.

`Cc1cc(C(F)(F)F)nc(-c2ccnc3cc(CN4C(=O)C5C(C4=O)C5(C)C)sc23)c1C(=O)N1CCC(C)(N)C1` (racemic) [Example 137, 3-((7-(3-(3-amino-3-methylpyrrolidine-1-carbonyl)-4-methyl-6-(trifluoromethyl)pyridin-2-yl)thieno[3,2-b]pyridin-2-yl)methyl)-6,6-dimethyl-3-azabicyclo[3.1.0]hexane-2,4-dione trihydrochloride] gave an IC50 of 0.5 to 1 µM.

`CCN[C@H]1CCN(C(=O)c2c(C)cc(C(F)(F)F)nc2-c2ccnc3cc(CN4C(=O)C5C(C4=O)C5(C)C)sc23)C1` (stereo partly drawn) [Example 73, 3-((7-(3-((S)-3-(ethylamino)pyrrolidine-1-carbonyl)-4-methyl-6-(trifluoromethyl)pyridin-2-yl)thieno[3,2-b]pyridin-2-yl)methyl)-6,6-dimethyl-3-azabicyclo[3.1.0]hexane-2,4-dione dihydrochloride] was tested, and the IC50 was < 0.5 µM.

`Cc1cc(C#N)nc(-c2ccnc3cc(CN4C(=O)C5C(C4=O)C5(C)C)sc23)c1C(=O)NC1CC(F)(F)C1` (stereo not shown) [Example 57, 6-cyano-N-(3,3-difluorocyclobutyl)-2-(2-((6,6-dimethyl-2,4-dioxo-3-azabicyclo[3.1.0]hexan-3-yl)methyl)thieno[3,2-b]pyridin-7-yl)-4-methylnicotinamide hydrochloride] was tested, and the inhibition at 1 µM was < 20%.

For `Cc1cc(C(F)(F)F)nc(-c2ccnc3cc(CN4C(=O)C5C(C4=O)C5(C)C)sc23)c1C(=O)N1CC2CCC1CN2` (stereo not shown) [Example 156, 3-((7-(3-(2,5-diazabicyclo[2.2.2]octane-2-carbonyl)-4-methyl-6-(trifluoromethyl)pyridin-2-yl)thieno[3,2-b]pyridin-2-yl)methyl)-6,6-dimethyl-3-azabicyclo[3.1.0]hexane-2,4-dione hydrochloride], the IC50 was < 0.5 µM.

For `Cc1cc(C(F)(F)F)nc(-c2ccnc3cc(CN4C(=O)C5C(C4=O)C5(C)C)sc23)c1C(=O)N1CCC2(CCCN2)C1` (stereo not shown) [Example 71, 6,6-dimethyl-3-((7-(4-methyl-3-(1,7-diazaspiro[4.4]nonane-7-carbonyl)-6-(trifluoromethyl)pyridin-2-yl)thieno[3,2-b]pyridin-2-yl)methyl)-3-azabicyclo[3.1.0]hexane-2,4-dione dihydrochloride], the IC50 was < 0.5 µM.

`Cc1cc(-c2ccnc3cc(CN4C(=O)C5C(C4=O)C5(C)C)sc23)c(O[C@H]2CCCNC2)cn1` (stereo partly drawn) [Example 119, 6,6-dimethyl-3-((7-(2-methyl-5-(((S)-piperidin-3-yl)oxy)pyridin-4-yl)thieno[3,2-b]pyridin-2-yl)methyl)-3-azabicyclo[3.1.0]hexane-2,4-dione 2,2,2-trifluoroacetate] was tested, and the inhibition at 1 µM was < 20%.

With `Cc1nc(Cl)cc(-c2ccnc3cc(CN4C(=O)C5C(C4=O)C5(C)C)sc23)c1NC(=O)[C@@H]1CCNC1` (stereo partly drawn) [Example 120, (3R)—N-(6-chloro-4-(2-((6,6-dimethyl-2,4-dioxo-3-azabicyclo[3.1.0]hexan-3-yl)methyl)thieno[3,2-b]pyridin-7-yl)-2-methylpyridin-3-yl)pyrrolidine-3-carboxamide 2,2,2-trifluoroacetate] the IC50 was 1 to 10 µM.

`Cc1nc(C(F)(F)F)cc(-c2ccnc3cc(CN4C(=O)C5C(C4=O)C5(C)C)sc23)c1NC(=O)C1CCNC1` (racemic) [Example 64, N-(4-(2-((6,6-dimethyl-2,4-dioxo-3-azabicyclo[3.1.0]hexan-3-yl)methyl)thieno[3,2-b]pyridin-7-yl)-2-methyl-6-(trifluoromethyl)pyridin-3-yl)pyrrolidine-3-carboxamide 2,2,2-trifluoroacetate] gave an IC50 of 1 to 10 µM.

In the case of `Cc1cc(C#N)nc(-c2ccnc3cc(CN4C(=O)C5C(C4=O)C5(C)C)sc23)c1NC1CNC1` (stereo not shown) [Example 24, 5-(azetidin-3-ylamino)-6-(2-((6,6-dimethyl-2,4-dioxo-3-azabicyclo[3.1.0]hexan-3-yl)methyl)thieno[3,2-b]pyridin-7-yl)-4-methylpicolinonitrile 2,2,2-trifluoroacetate], the IC50 is reported as < 0.5 µM.

Work on `Cc1cc(C#N)nc(-c2ccnc3cc(CN4C(=O)C5C(C4=O)C5(C)C)sc23)c1C(=O)N1CCNC(C)(C)C1` (stereo not shown) [Example 53, 6-(2-((6,6-dimethyl-2,4-dioxo-3-azabicyclo[3.1.0]hexan-3-yl)methyl)thieno[3,2-b]pyridin-7-yl)-5-(3,3-dimethylpiperazine-1-carbonyl)-4-methylpicolinonitrile hydrochloride] yielded an IC50 of 1 to 10 µM.

In the case of `Cc1cc(C(F)(F)F)nc(-c2ccnc3cc(CN4C(=O)C5C(C4=O)C5(C)C)sc23)c1C(=O)N1C[C@H]2CCN[C@H]2C1` (stereo partly drawn) [Example 108, 6,6-dimethyl-3-((7-(4-methyl-3-((3aR,6aR)-octahydropyrrolo[3,4-b]pyrrole-5-carbonyl)-6-(trifluoromethyl)pyridin-2-yl)thieno[3,2-b]pyridin-2-yl)methyl)-3-azabicyclo[3.1.0]hexane-2,4-dione dihydrochloride], the IC50 is reported as < 0.5 µM.

With `CC1(C)C2C(=O)N(Cc3cc4nccc(-c5cc(Cl)cnc5O[C@H]5CCNC5)c4s3)C(=O)C21` (stereo partly drawn) [Example 164, 3-((7-(5-chloro-2-(((S)-pyrrolidin-3-yl)oxy)pyridin-3-yl)thieno[3,2-b]pyridin-2-yl)methyl)-6,6-dimethyl-3-azabicyclo[3.1.0]hexane-2,4-dione dihydrochloride] the inhibition at 1 µM was < 20%.

With `Cc1cc(C(F)(F)F)nc(-c2ccnc3cc(CN4C(=O)C5C(C4=O)C5(C)C)sc23)c1CN1CC[C@@H]2CNC[C@@H]21` (stereo partly drawn) [Example 159, 3-((7-(3-(((3aR,6aR)-hexahydropyrrolo[3,4-b]pyrrol-1(2H)-yl)methyl)-4-methyl-6-(trifluoromethyl)pyridin-2-yl)thieno[3,2-b]pyridin-2-yl)methyl)-6,6-dimethyl-3-azabicyclo[3.1.0]hexane-2,4-dione trihydrochloride] the IC50 was < 0.5 µM.

In the case of `CCN1CCN(C(=O)c2c(C)cc(C(F)(F)F)nc2-c2ccnc3cc(CN4C(=O)C5C(C4=O)C5(C)C)sc23)CC1` (stereo not shown) [Example 143, 3-((7-(3-(4-ethylpiperazine-1-carbonyl)-4-methyl-6-(trifluoromethyl)pyridin-2-yl)thieno[3,2-b]pyridin-2-yl)methyl)-6,6-dimethyl-3-azabicyclo[3.1.0]hexane-2,4-dione trihydrochloride], the IC50 is reported as < 0.5 µM.
